Reference: the NIST ThermoML archive (doi:10.1016/j.fluid.2018.05.008)
Numbers after ± are expanded uncertainties.

How the values were obtained:
[1] = xn = mol fraction of the nth substance listed; settings: 100 kPa, Liquid, Vibrating tube method, x2 = 0.333
[2] = 100 kPa, Liquid, Vibrating tube method

| mass density ([1]; 293.15 K) | mass density ([1]; 303.15 K) | mass density ([1]; 313.15 K) | mass density ([1]; 323.15 K) | mass density ([1]; 333.15 K) | mass density ([2]; 293.15 K) | mass density ([2]; 303.15 K) | mass density ([2]; 313.15 K) | mass density ([2]; 323.15 K) | mass density ([2]; 333.15 K) | Compound |
| --- | --- | --- | --- | --- | --- | --- | --- | --- | --- | --- |
| 1199.7 ± 1.1 kg/m3 | 1194.2 ± 1.1 kg/m3 | 1188.6 ± 1.1 kg/m3 | 1183.2 ± 1.1 kg/m3 | 1178 ± 1.1 kg/m3 | – | – | – | – | – | NC(N)=O [urea] + C[N+](C)(C)CCO.[Cl-] |
| – | – | – | – | – | 790.6 ± 1 kg/m3 | 781.9 ± 1 kg/m3 | 773.3 ± 1 kg/m3 | 764.4 ± 1 kg/m3 | 755.1 ± 1 kg/m3 | CCO [ethanol] |
